Test results: patent US11793782B2, “Therapeutic agents for neurodegenerative diseases” (priority 2017, dated 2023)

Assays:
[1] = tested on: MSA-C patients; experiment: Case studies, multisystemic atrophy cerebellar type (MSA-C) patients; type: in vivo, human
[2] = tested on: ALS patients; experiment: Case studies, amyotrophic lateral sclerosis (ALS) patients; type: in vivo, human
Description: The results were documented by video.

[3] = MSA-C Patient 3, after 20 days of re-suspending treatment
[4] = MSA-C Patient 3, after 27 days of treatment
[5] = MSA-C Patient 3, shortly after commencing treatment
[6] = ALS Patient 1, after a further 20 days

With `CC(=O)NC(CC(C)C)C(=O)O` (racemic) [acetyl-DL-leucine] the Speech ([1]; MSA-C Patient 1, 5 g per day, after one week) was “significant improvement in speech”, the Falls ([1]; MSA-C Patient 2, after 3 weeks, before approximately 10 falls a month) was “falls completely stopped” and the “Symptoms after stopping medication” value ([1]; MSA-C Patient 2, one week after stopping) was “deterioration of gait and dizziness”. The “Symptoms after stopping medication again” value ([1]; MSA-C Patient 2, two days after stopping, following a further 40 days of treatment) was “progressive deterioration of gait and dizziness”, the Gait ([1]; MSA-C Patient 2, up to 5 gram per day, after 3 weeks) was “significant improvement of gait” and the speed ([1]; MSA-C Patient 3, 5 gram per day, after 27 days of treatment) was 106 cm/s. For the same compound, the “Coefficient of variation (temporal)” value [1, 3] was 2.5, the Double stance [1, 3] was 27.1% and the “Functional Gait Assessment” value [1, 3] was 22/30. For the same compound, the Max. speed [1, 3] was 197 cm/s, the Step cycle length [1, 3] was 115 cm and the Track width [1, 3] was 17.5 cm. For the same compound, the cadence [1, 3] was 112 steps/minute, the speed [1, 3] was 106 cm/s and the “Coefficient of variation (temporal)” value [1, 4] was 3.1. For the same compound, the Double stance [1, 4] was 27.3%, the “Functional Gait Assessment” value [1, 4] was 20/30 and the Max. speed [1, 4] was 208 cm/s. It also gave a Step cycle length [1, 4] of 113 cm, a Track width [1, 4] of 14.6 cm and a cadence [1, 4] of 113 steps/minute. For the same compound, the “Gait analysis (summary)” value ([1]; MSA-C Patient 3, after one month of treatment) was “improvement of gait speed, and reductions of track width and gait fluctuations”, the “Symptoms after stopping medication” value ([1]; MSA-C Patient 3, approximately two to three weeks after stopping) was “progressive deterioration of gait and dizziness” and the “Coefficient of variation (temporal)” value [1, 5] was 3.3. For the same compound, the Double stance [1, 5] was 32.5%, the “Functional Gait Assessment” value [1, 5] was 21/30 and the Max. speed [1, 5] was 183 cm/s. It also gave a Step cycle length [1, 5] of 87 cm, a Track width [1, 5] of 16.8 cm and a cadence [1, 5] of 101 steps/minute. For the same compound, the speed [1, 5] was 72 cm/s, the Overall symptoms ([2]; ALS Patient 1) was “improvement in symptoms” and the “Speech (patient report)” value ([2]; ALS Patient 1, 5 gram per day, after 15 days of treatment) was “significant improvement of speech”. For the same compound, the “Speech after stopping treatment” value ([2]; ALS Patient 1, about 7 days plus 1-2 additional weeks off treatment) was “deterioration of speech”, the “Paresis of the right foot-dorsiflexors and foot drop” value [2, 6] was “improved dramatically and were clinically hardly detectable” and the “Sleep (patient report)” value [2, 6] was “improvement in sleep”. For the same compound, the “Speech (patient report)” value [2, 6] was “further improvement of speech”, the “Symptomatology after resuming treatment” value ([2]; ALS Patient 1, second resumption) was “improved symptomatology, in particular speech” and the Clinical observation ([2]; ALS Patient 2, 5 g per day, after approximately 2 months) was “progredient deterioration of the motor function of the left hand, but a discrete improvement of walking”. The Swallowing functions ([2]; ALS Patient 2, after approximately 2 months) was “remained stable”, the Symptomatology ([2]; ALS Patient 3, 5 g per day, after one month) was “did not report improvement of symptomatology” and the Clinical observation ([2]; ALS Patient 4, 5 g per day, after about one month) was “subjective improvement of dysphagia and less hypersalivation”. For the same compound, the Symptomatology after suspension ([2]; ALS Patient 4, 10 days after therapy was suspended) was “worsening of symptomatology” and the ALS-FRS score ([2]; ALS Patient 4, about 8 weeks after resuming continuous treatment, before treatment 44/48) was 43/48.
